Like-named read-outs stand apart in the source and are kept apart here.
Experiments:
Format in all cases: cell-based
[1] = system: Zika virus, FSS 13025 strain (ZIKV, Cambodia 2010); experiment: Yield reduction assay followed by plaque assay in Vero cells, ZIKV Cambodia 2010; details: for IC50: Zika virus, 96 h, read-out: ZIKV, Cambodian 2010 IC50; for IC50 (summary in words): summary of Table 3
Description: (§1) The iminosugar compounds set forth in Table 4, below, were evaluated for antiviral activity against Zika virus, FSS 13025 strain (ZIKV, Cambodia 2010) and PR ABC strain (ZIKV, PR2015) in an yield reduction assay followed by a plaque assay.
In the yield reduction assay, Vero cells were seeded in 24-well plates and incubated overnight. The next day, serial dilutions of a given compound were prepared at 300 μM, 100 μM, 30 μM, 10 μM, and 3.0 μM. Growth medium was removed from the cells and the serial dilutions of the given compound were added in duplicate for one hour. Zika virus, FSS 13025 strain (ZIKV, Cambodia 2010) was added at a multiplicity of infection (MOI) of 0.01 for one hour. Growth medium was added to 1 mL and the cells were incubated for 4 days. Thereafter, cell supernatants were harvested, cleared of cell debris by centrifugation, and stored at −80° C. until further analysis for viral content in a plaque assay.
Plaque assays were performed by seeding Vero cells in 24-well plates and allowing the cells to adhere overnight. The next day each of the harvested supernatants from the yield-reduction assay were serially diluted 10-fold, growth medium was removed from the cells, and the adhered cells were infected with the dilutions of the supernatants for 1 h. Methylcellulose was added and the cells were incubated for 3 days. Plaques were visualized by staining the cell monolayer with crystal violet. Relative inhibition was calculated using IDBS XLFIT analysis program.
(§2) The duplicate titers for virus-only (vehicle control) were averaged and used as 0% inhibition. Efficacy data for the compounds were reported as the mean of the duplicates, including the standard deviation (SD) and coefficient of variation (% CV). FIGS. 2A, 2B, 3A, 3B, 4A, 4B, 5A, 5B, 6A, 6B, 7A, 7B, 8A, 8B, 9A, 9B, 10A, 10B, 11A, 11B, 12A, 12B, 13A, 13B, 14A, 14B, and 15 show the in vitro inhibitory effect of the iminosugar compounds against Zika virus, FSS 13025 strain, as set forth in Table 3 below.

[2] = In vitro cell cytotoxicity (CellTiter-Glo) in Vero cells; details: African green monkey, 3-5 days, max concentration 500 or 1000 μM, * = average of two values
[3] = system: Zika virus, PR ABC strain (ZIKV, PR2015); experiment: Yield reduction assay followed by plaque assay in Vero cells, ZIKV PR2015; details: 120 h, read-out: ZIKV, PR2015 IC50
Description: as §1
In the yield reduction assay, Vero cells were seeded in 24-well plates and incubated overnight. The next day, serial dilutions of a given compound were prepared at 200 μM, 100 μM, 20 μM, 4 μM, 0.8 μM, 0.16 μM, 0.03 μM, and 0.01 μM. Growth medium was removed from the cells and the serial dilutions of the given compound were added in duplicate for one hour. Zika virus, PR ABC strain (ZIKV, PR2015) was added at a multiplicity of infection (MOI) of 0.01 for one hour. Growth medium was added to 1 mL and the cells were incubated for 5 days. Thereafter, cell supernatants were harvested, cleared of cell debris by centrifugation, and stored at −80° C. until further analysis for viral content in a plaque assay.
Plaque assays were performed by seeding Vero cells in 24-well plates and allowing the cells to adhere overnight. The next day each of the harvested supernatants from the yield-reduction assay were serially diluted 10-fold, growth medium was removed from the cells, and the adhered cells were infected with the dilutions of the supernatants for 1 h. The cells were incubated with 0.8% carboxymethyl cellulose (CMC) for 3 days. At the end of the incubation, CMC overlay was removed, and the cells were permeabilized with an 80%/20% (V/V) mixture of ethanol and methanol for 10 min at −20° C. Plaques were visualized by performing an immunostaining assay with monoclonal 4G2 (ATCC) which was detected by HRP-conjugated goat anti-mouse antibody and visualized using HRP-conjugated goat anti-mouse polyclonal antibodies. Relative inhibition was calculated using IDBS XLFIT analysis program.
as §2

[4] = Vero cells, MOI 0.01, 4 days, plaque assay of supernatants, * = average of multiple data points
[5] = Vero cells, MOI 0.01, 5 days, plaque assay with immunostaining, * = average of multiple data points

| SMILES | IC50 [1, 4] | CC50 [2] | also measured |
| --- | --- | --- | --- |
| O=[N+]([O-])c1cc(-n2nccn2)ccc1NCCCCCCN1C[C@H](O)[C@@H](O)[C@H](O)[C@H]1CO [Compound 3, (2R,3R,4R,5S)-2-(hydroxymethyl)-1-(6-((2-nitro-4-(2H-1,2,3-triazol-2-yl)phenyl)amino)hexyl)piperidine-3,4,5-triol] | 106 µM | 245 µM |  |
| N/C(=N/O)c1ccc(NCCCCCCN2C[C@H](O)[C@@H](O)[C@H](O)[C@H]2CO)c([N+](=O)[O-])c1 [Compound 4, (E)-N′-hydroxy-3-nitro-4-((6-((2R,3R,4R,5S)-3,4,5-trihydroxy-2-(hydroxymethyl)piperidin-1-yl)hexyl)amino)benzimidamide] | 77.1 µM | > 1000 µM |  |
| O=[N+]([O-])c1cc(-n2cnnn2)ccc1NCCCCCCN1C[C@H](O)[C@@H](O)[C@H](O)[C@H]1CO [Compound 5, (2R,3R,4R,5S)-2-(hydroxymethyl)-1-(6-((2-nitro-4-(1H-tetrazol-1-yl)phenyl)amino)hexyl)piperidine-3,4,5-triol] | 69.3 µM | > 1000 µM |  |
| O=[N+]([O-])c1cc(-n2ncnn2)ccc1NCCCCCCN1C[C@H](O)[C@@H](O)[C@H](O)[C@H]1CO [Compound 6, (2R,3R,4R,5S)-2-(hydroxymethyl)-1-(6-((2-nitro-4-(2H-tetrazol-2-yl)phenyl)amino)hexyl)piperidine-3,4,5-triol] |  | 953 µM |  |
| O=[N+]([O-])c1cc(-c2ncccn2)ccc1NCCCCCCN1C[C@H](O)[C@@H](O)[C@H](O)[C@H]1CO [Compound 7, (2R,3R,4R,5S)-2-(hydroxymethyl)-1-(6-((2-nitro-4-(pyrimidin-2-yl)phenyl)amino)hexyl)piperidine-3,4,5-triol] | 18.9 µM | > 1000 µM | IC50 (summary in words) [1]: low micromolar activity |
| O=[N+]([O-])c1ccc(-n2cnnn2)cc1NCCCCCCN1C[C@H](O)[C@@H](O)[C@H](O)[C@H]1CO [Compound 9, (2R,3R,4R,5S)-2-(hydroxymethyl)-1-(6-((2-nitro-5-(1H-tetrazol-1-yl)phenyl)amino)hexyl)piperidine-3,4,5-triol] | > 100 µM | > 1000 µM |  |
| O=[N+]([O-])c1ccc(N2CCNCC2)cc1NCCCCCCN1C[C@H](O)[C@@H](O)[C@H](O)[C@H]1CO [Compound 10, (2R,3R,4R,5S)-2-(hydroxymethyl)-1-(6-((2-nitro-5-(piperazin-1-yl)phenyl)amino)hexyl)piperidine-3,4,5-triol] | > 100 µM | > 1000 µM |  |
| O=[N+]([O-])c1cc(NCCCCCCN2C[C@H](O)[C@@H](O)[C@H](O)[C@H]2CO)ccc1-n1cccn1 [Compound 13, (2R,3R,4R,5S)-2-(hydroxymethyl)-1-(6-((3-nitro-4-(1H-pyrazol-1-yl)phenyl)amino)hexyl)piperidine-3,4,5-triol] | > 100 µM | > 1000 µM |  |
| O=[N+]([O-])c1cc(NCCCCCCN2C[C@H](O)[C@@H](O)[C@H](O)[C@H]2CO)ccc1-n1cnnn1 [Compound 14, (2R,3R,4R,5S)-2-(hydroxymethyl)-1-(6-((3-nitro-4-(1H-tetrazol-1-yl)phenyl)amino)hexyl)piperidine-3,4,5-triol] | 88.5 µM | > 1000 µM |  |
| CN(C)Cc1ccc([N+](=O)[O-])c(NCCCCCCN2C[C@H](O)[C@@H](O)[C@H](O)[C@H]2CO)c1 [Compound 16, (2R,3R,4R,5S)-1-(6-((5-((dimethylamino)methyl)-2-nitrophenyl)amino)hexyl)-2-(hydroxymethyl)piperidine-3,4,5-triol] | > 100 µM | > 1000 µM |  |
| [N-]=[N+]=Nc1ccc(NCCCCN2C[C@H](O)[C@@H](O)[C@H](O)[C@H]2CO)c([N+](=O)[O-])c1 [Compound 17, (2R,3R,4R,5S)-1-(4-((4-azido-2-nitrophenyl)amino)butyl)-2-(hydroxymethyl)piperidine-3,4,5-triol] | 30.4 µM | 350 µM | IC50 (summary in words) [1]: low micromolar activity |
| OC[C@@H]1[C@@H](O)[C@H](O)[C@@H](O)CN1CCCCCCNc1c(F)cc(F)cc1F [Compound 18, (2R,3R,4R,5S)-2-(hydroxymethyl)-1-(6-((2,4,6-trifluorophenyl)amino)hexyl)piperidine-3,4,5-triol trifluoroacetic acid] |  | 413 µM | IC50 ([1]; Vero): > 100 µM |
| OC[C@@H]1[C@@H](O)[C@H](O)[C@@H](O)CN1CCCCCCNc1ccc(-n2ncnn2)cc1 [Compound 19, (2R,3R,4R,5S)-1-(6-((4-(2H-tetrazol-2-yl)phenyl)amino)hexyl)-2-(hydroxymethyl)piperidine-3,4,5-triol] | 140 µM | 953 µM |  |
| OC[C@@H]1[C@@H](O)[C@H](O)[C@@H](O)CN1CCCCCCNc1ncc2[nH]cnc2n1 [Compound 20, (2R,3R,4R,5S)-1-(6-((7H-purin-2-yl)amino)hexyl)-2-(hydroxymethyl)piperidine-3,4,5-triol] |  | 832 µM | IC50 [3, 5]: > 100 µM |
| O=[N+]([O-])c1cc(CN2CCCO2)ccc1NCCCCCCN1C[C@H](O)[C@@H](O)[C@H](O)[C@H]1CO [Compound 21, (2R,3R,4R,5S)-2-(hydroxymethyl)-1-(6-((4-(isoxazolidin-2-ylmethyl)-2-nitrophenyl)amino)hexyl)piperidine-3,4,5-triol] | > 100 µM | 2130 µM |  |
| O=[N+]([O-])c1cc(-c2ccccn2)ccc1NCCCCCCN1C[C@H](O)[C@@H](O)[C@H](O)[C@H]1CO [Compound 22, (2R,3R,4R,5S)-2-(hydroxymethyl)-1-(6-((2-nitro-4-(pyridin-2-yl)phenyl)amino)hexyl)piperidine-3,4,5-triol] | 47 µM | 99.8 µM | IC50 (summary in words) [1]: low micromolar activity |
| O=[N+]([O-])c1cc(-c2cccnn2)ccc1NCCCCCCN1C[C@H](O)[C@@H](O)[C@H](O)[C@H]1CO [Compound 23, (2R,3R,4R,5S)-2-(hydroxymethyl)-1-(6-((2-nitro-4-(pyridazin-3-yl)phenyl)amino)hexyl)piperidine-3,4,5-triol] | > 100 µM | 5190 µM |  |
| O=[N+]([O-])c1cc(-c2ccncn2)ccc1NCCCCCCN1C[C@H](O)[C@@H](O)[C@H](O)[C@H]1CO [Compound 24, (2R,3R,4R,5S)-2-(hydroxymethyl)-1-(6-((2-nitro-4-(pyrimidin-4-yl)phenyl)amino)hexyl)piperidine-3,4,5-triol] | > 100 µM | 816 µM |  |
| O=[N+]([O-])c1cc(-c2cccnc2)ccc1NCCCCCCN1C[C@H](O)[C@@H](O)[C@H](O)[C@H]1CO [Compound 25, (2R,3R,4R,5S)-2-(hydroxymethyl)-1-(6-((2-nitro-4-(pyridin-3-yl)phenyl)amino)hexyl)piperidine-3,4,5-triol] | 17 µM | 101 µM | IC50 (summary in words) [1]: low micromolar activity |
| CCCCN1C[C@H](O)[C@@H](O)[C@H](O)[C@H]1CO [UV-1, (2R,3R,4R,5S)-1-butyl-2-(hydroxymethyl)piperidine-3,4,5-triol] |  |  | IC50 [3, 5]: 3 µM |
| CCCCCCCCCN1C[C@H](O)[C@@H](O)[C@H](O)[C@H]1CO [UV-2, (2R,3R,4R,5S)-2-(hydroxymethyl)-1-nonylpiperidine-3,4,5-triol] |  |  | IC50 ([3]; Vero): 95 µM |
| CCCOCCCCCCN1C[C@H](O)[C@@H](O)[C@H](O)[C@H]1CO [UV-3, (2R,3R,4R,5S)-2-(hydroxymethyl)-1-(6-propoxyhexyl)piperidine-3,4,5-triol] |  |  | IC50 [3, 5]: > 100 µM |
